Test results: patent US10766869B2, “Triazoles for the treatment of demyelinating dieases” (Vertex Pharmaceuticals Incorporated, priority 2015, dated 2020)
Where two headings read alike, the source gives them in different places.

Test system: primary rat mixed cortical cells
Test: In vitro myelination assay (MBP positive myelin strands, fold myelin pixels above background)
Assay type: cell-based
Conditions: Rattus norvegicus; for fold induction at 1 µM: 1.0 μM compound; for fold induction at 10 µM: 10.0 μM compound
Method in brief: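 P1 rat mixed cortical cultures (neurons, OPCs, oligodendrocytes, astrocytes, microglia) grown 14 days at 37 °C with compound, half-medium refreshed with compound on days 6 and 10. Fixed cells stained for MBP; MBP-positive myelin strand pixels per well quantified by automated imaging, reported as fold over no-compound baseline at 1.0 and 10.0 μM.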

[1] = relative to baseline of no added compound, read-out: Fold myelin pixels above background, 1.0 μM
[2] = relative to baseline of no added compound, read-out: Fold myelin pixels above background, 10.0 μM
[3] = read-out: Fold myelin pixels above background relative to baseline of no added compound
[4] = relative to baseline of no added compound, read-out: Fold myelin pixels above background

| SMILES | fold induction at 1 µM [3] | fold induction at 10 µM [3] | further results |
| --- | --- | --- | --- |
| Cc1cc(Nc2ncn(-c3cnccn3)n2)cc(C2CCCN(C3COC3)C2)c1 (stereo not shown) [Compound 74, N-[3-methyl-5-[1-(oxetan-3-yl)-3-piperidyl]phenyl]-1-pyrazin-2-yl-1,2,4-triazol-3-amine] |  |  | fold induction at 1 µM [1]: 100 to 1000; fold induction at 10 µM [2]: 100 to 1000 |
| Cc1cc(Nc2ncn(-c3cccc(F)c3)n2)c(F)c(N2CCN(C3COC3)CC2)c1 [Compound 955, N-[2-fluoro-5-methyl-3-[4-(oxetan-3-yl)piperazin-1-yl]phenyl]-1-(3-fluorophenyl)-1,2,4-triazol-3-amine] | 10 to 100 | 1 to 10 |  |
| [2H]C1([2H])N(c2cc(C)cc(Nc3ncn(-c4cc(F)cc(F)c4)n3)c2)C([2H])([2H])C([2H])([2H])N(C2CCCOC2)C1([2H])[2H] (stereo not shown) [Compound 926, 1-(3,5-difluorophenyl)-N-[3-methyl-5-(2,2,3,3,5,5,6,6-octadeuterio-4-tetrahydropyran-3-yl-piperazin-1-yl)phenyl]-1,2,4-triazol-3-amine] | 10 to 100 | 1 to 10 |  |
| Cc1cc(NC(=O)C2CC2)cc(Nc2ncn(-c3ccccc3)n2)c1 [Compound 1058, N-[3-methyl-5-[(1-phenyl-1,2,4-triazol-3-yl)amino]phenyl]cyclopropanecarboxamide] | 10 to 100 | 10 to 100 |  |
| Cc1cc(Nc2ncn(-c3cc(F)cc(F)c3)n2)cc(N2CCN(CC3CCCO3)CC2)c1 (stereo not shown) [Compound 914, 1-(3,5-difluorophenyl)-N-[3-methyl-5-[4-(tetrahydrofuran-2-ylmethyl)piperazin-1-yl]phenyl]-1,2,4-triazol-3-amine] | 10 to 100 | ≤ 1 |  |
| CCC1(O)CN(c2cc(C)cc(Nc3ncn(-c4cc(F)cc(F)c4)n3)c2)C1 [Compound 553, 1-[3-[[1-(3,5-difluorophenyl)-1,2,4-triazol-3-yl]amino]-5-methyl-phenyl]-3-ethyl-azetidin-3-ol] |  |  | fold induction at 1 µM [4]: 100 to 1000; fold induction at 10 µM [4]: 10 to 100 |
| Fc1cc(Nc2ncn(-c3ccc(F)cc3F)n2)cc(NC2CNC2)c1 [Compound 177, N1-(azetidin-3-yl)-N3-[1-(2,4-difluorophenyl)-1,2,4-triazol-3-yl]-5-fluoro-benzene-1,3-diamine] |  |  | fold induction at 1 µM [1]: ≤ 1; fold induction at 10 µM [2]: ≤ 1 |
| CC1(N2CCN(c3cc(C(F)F)cc(Nc4ncn(-c5cccc(F)c5)n4)n3)CC2)COC1 [Compound 823, 4-(difluoromethyl)-N-[1-(3-fluorophenyl)-1,2,4-triazol-3-yl]-6-[4-(3-methyloxetan-3-yl)piperazin-1-yl]pyridin-2-amine] | 10 to 100 | 10 to 100 |  |
| Cc1cc(Nc2ncn(-c3ccc(F)c(F)c3)n2)cc(N2CCOCC2)n1 [Compound 265, N-[1-(3,4-difluorophenyl)-1,2,4-triazol-3-yl]-2-methyl-6-morpholino-pyridin-4-amine] |  |  | fold induction at 1 µM [1]: 100 to 1000; fold induction at 10 µM [2]: 100 to 1000 |
| Cc1cc(NCC2COCCO2)cc(Nc2ncn(-c3cc(F)cc(F)c3)n2)c1 (stereo not shown) [Compound 932, N1-[1-(3,5-difluorophenyl)-1,2,4-triazol-3-yl]-N3-(1,4-dioxan-2-ylmethyl)-5-methyl-benzene-1,3-diamine] | 1 to 10 | ≤ 1 |  |
| Cc1cc(Nc2ncn(-c3cnccn3)n2)cc(N2CC(N3CCCOCC3)C2)c1 [Compound 825, N-[3-methyl-5-[3-(1,4-oxazepan-4-yl)azetidin-1-yl]phenyl]-1-pyrazin-2-yl-1,2,4-triazol-3-amine] | 10 to 100 | 10 to 100 |  |
| Cc1cc(Nc2ncn(-c3cc(F)cc(F)c3)n2)cc(N2CCC3(CCCO3)CC2)c1 [Compound 851, 1-(3,5-difluorophenyl)-N-[3-methyl-5-(1-oxa-8-azaspiro[4.5]decan-8-yl)phenyl]-1,2,4-triazol-3-amine] | 1 to 10 | 10 to 100 |  |
| N#Cc1cc(N2CCN(C3COC3)CC2)cc(Nc2ncn(-c3cc(F)cc(F)c3)n2)n1 [Compound 707, 6-[[1-(3,5-difluorophenyl)-1,2,4-triazol-3-yl]amino]-4-[4-(oxetan-3-yl)piperazin-1-yl]pyridine-2-carbonitrile] |  |  | fold induction at 1 µM [4]: ≤ 1; fold induction at 10 µM [4]: ≤ 1 |
| COCCN1CCCC(Nc2cc(C)cc(Nc3ncn(-c4cc(F)cc(F)c4)n3)c2)C1 (stereo not shown) [Compound 1050, N3-[1-(3,5-difluorophenyl)-1,2,4-triazol-3-yl]-N1-[1-(2-methoxyethyl)-3-piperidyl]-5-methyl-benzene-1,3-diamine] | 10 to 100 | ≤ 1 |  |
| Cc1cc(NCC2COCCN2C)cc(Nc2ncn(-c3cc(F)cc(F)c3)n2)c1 (stereo not shown) [Compound 1062, N1-[1-(3,5-difluorophenyl)-1,2,4-triazol-3-yl]-5-methyl-N3-[(4-methylmorpholin-3-yl)methyl]benzene-1,3-diamine] | 10 to 100 | ≤ 1 |  |
| Cc1cc(Nc2ncn(-c3ccccc3)n2)cc(N2CCC3(CC2)COC3)c1 [Compound 11, N-[3-methyl-5-(2-oxa-7-azaspiro[3.5]nonan-7-yl)phenyl]-1-phenyl-1,2,4-triazol-3-amine] |  |  | fold induction at 1 µM [1]: 1000 to 10000; fold induction at 10 µM [2]: 1000 to 10000 |
| CCc1cc(Nc2ncn(-c3ccc(F)cc3)n2)cc(N2CCN(C3(C)COC3)CC2)c1 [Compound 802, N-[3-ethyl-5-[4-(3-methyloxetan-3-yl)piperazin-1-yl]phenyl]-1-(4-fluorophenyl)-1,2,4-triazol-3-amine] | 10 to 100 | ≤ 1 |  |
| Fc1cc(-n2cnc(Nc3cc(C4CC4)cc(N4CCN(C5COC5)CC4)c3)n2)cc(F)n1 [Compound 121, N-[3-cyclopropyl-5-[4-(oxetan-3-yl)piperazin-1-yl]phenyl]-1-(2,6-difluoro-4-pyridyl)-1,2,4-triazol-3-amine] |  |  | fold induction at 1 µM [1]: 100 to 1000; fold induction at 10 µM [2]: ≤ 1 |
| CCC(CN1CCOCC1)Nc1cc(C)cc(Nc2ncn(-c3cc(F)cc(F)c3)n2)c1 (stereo not shown) [Compound 960, N3-[1-(3,5-difluorophenyl)-1,2,4-triazol-3-yl]-5-methyl-N1-[1-(morpholinomethyl)propyl]benzene-1,3-diamine] | 1 to 10 | ≤ 1 |  |
| [2H]C1([2H])NC([2H])([2H])C([2H])([2H])N(c2cc(C)cc(Nc3ncn(-c4cc(F)cc(F)c4)n3)c2)C1([2H])[2H] [Compound 916, 1-(3,5-difluorophenyl)-N-[3-methyl-5-(2,2,3,3,5,5,6,6-octadeuteriopiperazin-1-yl)phenyl]-1,2,4-triazol-3-amine] | 10 to 100 | ≤ 1 |  |
| COCC1CCN(c2cc(C)cc(Nc3ncn(-c4ccccn4)n3)c2)CC1 [Compound 211, N-[3-[4-(methoxymethyl)-1-piperidyl]-5-methyl-phenyl]-1-(2-pyridyl)-1,2,4-triazol-3-amine] |  |  | fold induction at 1 µM [1]: 10 to 100; fold induction at 10 µM [2]: 100 to 1000 |
| Cc1cc(Nc2ncn(-c3cc(F)cc(F)c3)n2)cc(N2CC(C(C)(C)O)C2)c1 [Compound 519, 2-[1-[3-[[1-(3,5-difluorophenyl)-1,2,4-triazol-3-yl]amino]-5-methyl-phenyl]azetidin-3-yl]propan-2-ol] |  |  | fold induction at 1 µM [4]: 100 to 1000; fold induction at 10 µM [4]: ≤ 1 |
| CC1(N2CCN(c3cc(C(F)F)cc(Nc4ncn(-c5ccc(F)c(F)c5)n4)n3)CC2)COC1 [Compound 849, 4-(difluoromethyl)-N-[1-(3,4-difluorophenyl)-1,2,4-triazol-3-yl]-6-[4-(3-methyloxetan-3-yl)piperazin-1-yl]pyridin-2-amine] | 10 to 100 | 10 to 100 |  |
| Cc1cc(Nc2ncn(-c3cc(F)cc(F)c3)n2)cc(N2CCOC(CN(C)C)C2)c1 (stereo not shown) [Compound 1018, 1-(3,5-difluorophenyl)-N-[3-[2-[(dimethylamino)methyl]morpholin-4-yl]-5-methyl-phenyl]-1,2,4-triazol-3-amine] | 10 to 100 | ≤ 1 |  |
| Cc1cc(Nc2ncn(-c3cc(F)cc(F)c3)n2)cc(N2CC(S(C)(=O)=O)C2)c1 [Compound 1037, 1-(3,5-difluorophenyl)-N-[3-methyl-5-(3-methylsulfonylazetidin-1-yl)phenyl]-1,2,4-triazol-3-amine] | 10 to 100 | ≤ 1 |  |
| Cc1cc(Nc2ncn(-c3cc(F)cc(F)c3)n2)cc(N2CC(C(=O)N3CCCC3)C2)c1 [Compound 773, [1-[3-[[1-(3,5-difluorophenyl)-1,2,4-triazol-3-yl]amino]-5-methyl-phenyl]azetidin-3-yl]-pyrrolidin-1-yl-methanone] |  |  | fold induction at 1 µM [4]: 10 to 100; fold induction at 10 µM [4]: ≤ 1 |
| COCC1CCN(c2cc(C)cc(Nc3ncn(-c4ccccc4)n3)c2)CC1 [Compound 481, N-[3-[4-(methoxymethyl)-1-piperidyl]-5-methyl-phenyl]-1-phenyl-1,2,4-triazol-3-amine] |  |  | fold induction at 1 µM [4]: 100 to 1000; fold induction at 10 µM [4]: 100 to 1000 |
| Cc1c(Nc2ncn(-c3cc(F)cc(F)c3)n2)cc(N2CC(N3CCOCC3)C2)cc1OC(C)C [Compound 641, 1-(3,5-difluorophenyl)-N-[3-isopropoxy-2-methyl-5-(3-morpholinoazetidin-1-yl)phenyl]-1,2,4-triazol-3-amine] |  |  | fold induction at 1 µM [4]: 10 to 100; fold induction at 10 µM [4]: 1 to 10 |
| Cc1cc(Nc2ncn(-c3cc(F)cc(F)c3)n2)cc(N2CCN(CCOC(C)C)CC2)c1 [Compound 1005, 1-(3,5-difluorophenyl)-N-[3-[4-(2-isopropoxyethyl)piperazin-1-yl]-5-methyl-phenyl]-1,2,4-triazol-3-amine] | 1 to 10 | ≤ 1 |  |
